Measurements from patent publication US8372839B2, “Bipartite inhibitors of bacterial RNA polymerase” (priority 2005, dated 2013).
Starred links: 1 amine or outer side, 2 acyl side, 3 side chain; linkers in the order of their positions; H or OH if unused. Positions of bridges follow the written chain, without caps; N, C: chain ends. Non-standard residues stand in square brackets, D forms with d. Residues, ends and D or L forms follow the SMILES beside them. *: point of attachment. X2 = CO[C@H]1/C=C/O[C@@]2(C)Oc3c(C)c(O)c4c(O)c(cc(OCC(=O)NCCCCCCCCCCCCN*)c4c3C2=O)NC(=O)/C(C)=C\C=C\[C@H](C)[C@H](O)[C@@H](C)[C@@H](O)[C@@H](C)[C@H](OC(C)=O)[C@@H]1C; X1 = N=C(CCCSCC(=O)[*:3])NCCCC[C@H](N[*:1])C(=O)[*:2]

Key:
[Asn516]β-RNAP = [Asn516]β-RNAP (Escherichia coli, UniProt P0A8T7+P0A8V2, D516N)
Experimental: Following 10 min at 37° C., the reaction was terminated by addition of 10/j 80% formamide, 10 mM EDTA, 0.04% bromophenol blue, and 0.04% xylene cyanol.

Escherichia coli RNAP = target: T1, Escherichia coli RNAP (Escherichia coli, UniProt P0A8T7+P0A8V2); assay: biochemical; assay type: biochemical; details: for inhibition of transcription (in words): transcription assay, RNAP and [Asn516]β-RNAP
T1 construct: made in house
Experimental: RNAP was prepared as described in Niu, et al. (1996) Cell 87, 1123-1134. [Asn516]β-RNAP, a strongly rifamycin-resistant RNAP derivative (see Jin, et al. (1988) J. Mol. Biol. 202, 45-58) was prepared in the same manner, except that plasmid pRL706-516N was used in place of plasmid pREII-NHα. [Plasmid pRL706-516N, which encodes C-terminally hexahistidine tagged [Asn516]β, was constructed from plasmid pRL706 (Severinov, et al. (1997) J. Biol. Chem. 272, 24137-24140) by use of site-directed mutagenesis (QuikChange Site-Directed Mutagenesis Kit; Stratagene).]
RNAP or [Asn516]β-RNAP (3 fmol; Example 3.1) and each test compound (250 fmol-100 pmol) were pre-equilibrated 30 min at 37° C. in 15 μl buffer A (50 mM Tris-HCl, pH 8.0, 100 mM KCl, 10 mM MgCl2, 1 mM dithiothreitol, 10 ug/ml bovine serum albumin, and 5% glycerol). To the reaction mixture, was added 1 μl of 1 μM DNA fragment comprising positions −60 to +46 of the bacteriophage T5 N25 promoter (1 pmol; prepared as in Revyakin, et al. (2006) Science, in press), and, following incubation 15 min at 37° C., RNA synthesis was initiated by addition of […] of 6.7 mM ATP and 30 μM α[^32P]-UTP (0.6 Bq/fmol). Following 10 min at 37° C., the reaction was terminated by addition of 10/j 80% formamide, 10 mM EDTA, 0.04% bromophenol blue, and 0.04% xylene cyanol. Reaction products were heated […] at 90° C. and were analyzed by urea-PAGE (Sambrook, et al. (2001) Molecular Cloning: A Laboratory Manual, CSHL Press, Cold Spring Harbor, N.Y.), and quantified using a storage-phosphor scanner.

[1] = system: Escherichia coli strain D21 f2/tolC; assay: Susceptibility assay (spot on top agar); assay type: cell-based; details: for lowest concentration of test compound solution resulting in detectable inhibition of bacterial growth: 2.5 μl aliquots spotted, 12 h at 37° C.
Experimental: Aliquots (2.5 μl) of 1.56, 3.12, 6.25, 12.5, 25, 50, 100, 200, and 400 μM solutions of a test compound were spotted on plates containing Escherichia coli strain D21 f2/tolC (Fralick, et al. (1994) J. Bacteriol. 176, 6404-6406; ˜10^8 cells) in LB top agar (Sambrook, et al. (2001) Sambrook, et al. (2001) Molecular Cloning. A Laboratory Manual, CSHL Press, Cold Spring Harbor, N.Y.; 3.5 ml) overlaid on LB agar (Sambrook, et al. (2001) Sambrook, et al. (2001) Molecular Cloning: A Laboratory Manual, CSHL Press, Cold Spring Harbor, N.Y.; 25 ml).

| Molecule | inhibition of transcription (in words) (Escherichia coli RNAP) | lowest concentration of test compound solution resulting in detectable inhibition of bacterial growth [1] [µM] | other results |
| --- | --- | --- | --- |
| {rifamycin SV}—{CH2C(O)NH(CH2)10NHC(O)(CH2)2(C2N3)(CH2)4C(O)}-{[Lys5]microcin J25} [rifamicrocin 2-10] | potently to inhibit transcription | – | potency relative to prior-art rifamycin B, [Asn516]β-RNAP ([Asn516]β-RNAP): approximately 2 times higher |
| CC[C@H](C)[C@H](NC(=O)CNC(=O)[C@@H](NC(=O)[C@H](Cc1ccccc1)NC(=O)[C@H](Cc1ccc(O)cc1)NC(=O)[C@@H]1CCC(=O)NCC(=O)NCC(=O)N[C@@H](C)C(=O)NCC(=O)N[C@@H](CCCCNC(=N)CCCSCC(=O)NCCCCCCCCCCCCNC(=O)COc2cc3c(O)c4c(O)c(C)c5c(c24)C(=O)[C@@](C)(O/C=C/[C@H](OC)[C@@H](C)[C@@H](OC(C)=O)[C@H](C)[C@H](O)[C@H](C)[C@@H](O)[C@@H](C)/C=C/C=C(/C)C(=O)N3)O5)C(=O)N[C@@H](C(C)C)C(=O)N2CCC[C@H]2C(=O)N1)C(C)C)C(=O)NCC(=O)N[C@H](C(=O)N1CCC[C@H]1C(=O)N[C@H](C(=O)N[C@@H](CO)C(=O)N[C@@H](Cc1ccccc1)C(=O)N[C@@H](Cc1ccc(O)cc1)C(=O)NCC(=O)O)[C@@H](C)CC)[C@@H](C)O [rifamicrocin 1-12, {rifamycin SV}—{CH2C(O)NH(CH2)12NHC(O)CH2S(CH2)3C(NH2^+)}-{[Lys5]microcin J25}] (GGAG[X1](X2)VPEYFVGIGTPISFYG-OH; lactam N-8 (inferred); C-terminus assumed) | potently to inhibit transcription | – | IC50 (Escherichia coli RNAP): 2 nM |
| {Rifamycin SV}—{CH2C(O)NH(CH2)nNHC(O)CH2S(CH2)3C(NH2^+)}-{[Lys5]MccJ25} [rifamicrocin 1-10] | potently to inhibit transcription | 12.5 | potency on bacterial growth relative to rifamycin SV ([1]; vs rifamycin SV): ~4 times higher |
| CO[C@H]1/C=C/O[C@@]2(C)Oc3c(C)c([O-])c4c(O)c(cc(O)c4c3C2=O)NC(=O)/C(C)=C\C=C\[C@H](C)[C@H](O)[C@@H](C)[C@@H](O)[C@@H](C)[C@H](OC(C)=O)[C@@H]1C.[Na+] [rifamycin SV, reference compound] | – | 50 | – |
| {Rifamycin SV}—{CH2C(O)NH(CH2)nNHC(O)CH2S(CH2)3C(NH2^+)}-{[Lys5]MccJ25} [rifamicrocin 1-8] | potently to inhibit transcription | – | – |
| {Rifamycin SV}—{CH2C(O)NH(CH2)nNHC(O)CH2S(CH2)3C(NH2^+)}-{[Lys5]MccJ25} [rifamicrocin 1-6] | potently to inhibit transcription | – | – |
